Data from patent publication US20110038920A1, “WOUND HEALING COMPOSITIONS AND TREATMENTS” (priority 2008, published 2011).
Where a name gives a salt, the structure may show the parent alone.

Assays:
[1] = test system: OPN expression in Swiss 3T3 fibroblasts exposed to macrophage CM; assay: Macrophage-CM induction of OPN in fibroblasts with inhibitors (Western blot); format: cell-based; settings: co-treatment; Gleevec 2-20 μM, PDGF-Rβ nAb 2 μg/ml, wortmannin 100 nM
Method: (§1) Protein samples (20 μg; collected in T-PER® Reagent; PIERCE Biotechnology) were separated on Tris-Glycine Gels (Invitrogen), transferred to PVDF, and blotted according to standard protocols (antibody details are provided above).
(§2) Swiss 3T3, J774.1 macrophages, and RBL mast cells were cultured in DMEM+10% fetal calf serum. Primary neutrophils were harvested by peritoneal lavage 4 h post-thioglycollate-induced peritonitis, and primary macrophages were derived from mouse bone marrow and activated with LPS (500 ng/ml).

[2] = test system: pulmonary and dermal fibrosis; settings: Distler et al. 2007; Aono et al. 2005; cited from earlier work
[3] = test system: OPN expression in Swiss 3T3 fibroblasts; assay: Induction of OPN expression in fibroblasts by growth factors/cytokines (Western blot); format: cell-based; settings: for ability to upregulate OPN expression in Swiss 3T3s: 8 h, PDGF-BB 20, EGF 100, TGFβ1 10, TGFβ3 10, IL-6 50, TNFα 10 ng/ml
Method: as §1, §2

[4] = test system: Mouse OPN mRNA; assay: AS ODN cleavage of OPN mRNA in vitro (RNase H); format: biochemical; settings: ODN final concentration 2 μM, 20 min at 37° C., compared among the AS ODNs
Method: Dz cleavage of OPN mRNA in vitro: Mouse OPN mRNA was transcribed from the IMAGE clone (GenBank, BC057858; (Geneservice Ltd), and resulting RNA was purified with RNeasy MinElute Cleanup Kit (Qiagen). RNA (0.3 μg/5 μl) was incubated in the cleavage buffer (10 mM MgCl2, 5 mM Tris (pH 7.5), 150 mM NaCl) for 5 min at 37° C., as was 5 μl of Dzs (40 μM; MWG Biotech). These were then combined and incubated for 1 h. RNA products were separated on 2% formaldehyde-agarose gel and stained with SYBR Gold nucleic acid gel stain (Invitrogen) to determine cleaving efficiency (FIG. 6 A).
AS ODN cleavage in vitro: To evaluate the cleaving efficiency of the AS ODNs, transcribed RNA (0.3 μg) was incubated with control or OPN AS ODNs (final concentration of 2 μM; MWG Biotech), RNase H (Invitrogen. Corp.), and RNasin (to inhibit non-specific RNA degradation; Promega) in a final volume 10 μl of cleavage buffer, and incubated for 20 min at 37° C. RNA products were separated on 2% formaldehyde-agarose gel and stained with SYBR Gold nucleic acid gel stain (Invitrogen Corp.) to determine cleaving efficiency (FIG. 6 B).

[5] = test system: chronic ulcers; settings: cited from earlier work

Cc1ccc(NC(=O)c2ccc(CN3CCN(C)CC3)cc2)cc1Nc1nccc(-c2cccnc2)n1 [Gleevec, imatinib mesylate]
OPN expression during fibroblast exposure to macrophage CM [1]: significantly reduced
pulmonary and dermal fibrosis [2]: reduces pulmonary and dermal fibrosis

EGF: growth factor, R&D Systems (NSDSECPLSHDGYCLHDGVCMYIEALDKYACNCVVGYIGERCQYRDLKWWELR; Epidermal growth factor; UniProt P01133 971-1023, looked up)
ability to upregulate OPN expression in Swiss 3T3s [3]: not

IL-6: cytokine, BioSource
ability to upregulate OPN expression in Swiss 3T3s [3]: not

OPN AS ODN (943): osteopontin antisense oligodeoxynucleotide actatcgatcacatccg (SEQ.ID.NO: 164) (antisense ACTATCGATCACATCCG; DNA, backbone not given here)
effectiveness at cleaving OPN mRNA [4]: most effective

PDGF-BB: growth factor, R&D Systems
granulation tissue and scarring ([5]; in vivo): increased granulation tissue and scarring
healing of chronic ulcers ([5]; topical application to wounds (Chan et al. 2006)): accelerate the healing
ability to upregulate OPN expression in Swiss 3T3s [3]: significantly upregulate
time of peak OPN levels after initial exposure ([3]; Swiss 3T3 fibroblasts, 20 ng/ml PDGF-BB): about 8 h
minimum window of exposure required for OPN expression ([3]; Swiss 3T3 fibroblasts, 20 ng/ml PDGF-BB, analysed at 8 h): ≥ 2 h

TGFβ1: growth factor/cytokine, BioVision
ability to upregulate OPN expression in Swiss 3T3s [3]: not
